ChEMBL document CHEMBL1128088, “Synthesis and activity of cereulide, a cyclic dodecadepsipeptide ionophore as emetic toxin from Bacillus cereus” (1995)

Legend:
HEp-2 = experiment: Effect on vacuole response in the HEp-2 cells; format: functional, Homo sapiens
Suncus murinus [1] = experiment: Effect on latency at dose 16 ug/Kg administered ip; format: functional
Suncus murinus [2] = experiment: Effect on latency at dose 16 ug/Kg administered po; format: functional
Suncus murinus [3] = experiment: Effect on latency at dose 32 ug/Kg administered ip; format: functional
Suncus murinus [4] = experiment: Effect on latency at dose 32 ug/Kg administered po; format: functional
Suncus murinus [5] = experiment: Effect on latency at dose 4 ug/Kg administered ip; format: functional
Suncus murinus [6] = experiment: Effect on latency at dose 8 ug/Kg administered ip; format: functional
Suncus murinus [7] = experiment: Effect on number of suncus vomited at dose 16 ug/Kg administered ip (out of 5); format: functional
Suncus murinus [8] = experiment: Effect on number of suncus vomited at dose 2 ug/Kg administered ip (out of 3); format: functional
Suncus murinus [9] = experiment: Effect on number of suncus vomited at dose 32 ug/Kg administered ip (out of 5); format: functional
Suncus murinus [10] = experiment: Effect on number of suncus vomited at dose 4 ug/Kg administered ip (out of 5); format: functional
Suncus murinus [11] = experiment: Effect on number of suncus vomited at dose 4 ug/Kg administered po (out of 5); format: functional
Suncus murinus [12] = experiment: Effect on number of suncus vomited at dose 8 ug/Kg administered ip (out of 5); format: functional
Suncus murinus [13] = experiment: Effect on number of suncus vomited at dose 8 ug/Kg administered po (out of 5); format: functional
Suncus murinus [14] = experiment: Effect on number of vomiting episodes at dose 16 ug/Kg administered ip; format: functional
Suncus murinus [15] = experiment: Effect on number of vomiting episodes at dose 16 ug/Kg administered po; format: functional
Suncus murinus [16] = experiment: Effect on number of vomiting episodes at dose 32 ug/Kg administered ip; format: functional
Suncus murinus [17] = experiment: Effect on number of vomiting episodes at dose 32 ug/Kg administered po; format: functional
Suncus murinus [18] = experiment: Effect on number of vomiting episodes at dose 4 ug/Kg administered ip; format: functional
Suncus murinus [19] = experiment: Effect on number of vomiting episodes at dose 8 ug/Kg administered ip; format: functional
Suncus murinus [20] = experiment: Effect on number of vomiting episodes at dose 8 ug/Kg administered po; format: functional
Suncus murinus [21] = experiment: Effect on latency at dose 8 ug/Kg administered po; format: functional
Suncus murinus [22] = experiment: Effect on number of suncus vomited at dose 16 ug/Kg administered po (out of 5); format: functional
Suncus murinus [23] = experiment: Effect on number of suncus vomited at dose 32 ug/Kg administered po (out of 5); format: functional
Suncus murinus [24] = experiment: Effect on number of suncus vomited at dose 8 ug/Kg administered ip; format: functional

SMILES	Vacuole response (HEp-2)	Latency (Suncus murinus [1])	Latency (Suncus murinus [2])	Latency (Suncus murinus [4])	Latency (Suncus murinus [6])	No. of suncus vomited (Suncus murinus [7])	No. of suncus vomited (Suncus murinus [10])	No. of suncus vomited (Suncus murinus [13])	No. of vomiting episodes (Suncus murinus [14])	No. of vomiting episodes (Suncus murinus [15])	No. of vomiting episodes (Suncus murinus [17])	No. of vomiting episodes (Suncus murinus [19])	also measured
CC(=O)OC[C@@H](C)NC(=O)[C@@H](CC(C)C)OC(=O)[C@@H](NC(=O)[C@@H](OC(=O)[C@@H](C)NC(=O)[C@@H](CC(C)C)OC(=O)[C@@H](NC(=O)[C@@H](OC(=O)[C@@H](C)NC(=O)[C@@H](CC(C)C)OC(=O)[C@@H](NC(=O)[C@@H](OC(C)=O)C(C)C)C(C)C)C(C)C)C(C)C)C(C)C)C(C)C	>20000 ng/mL	–	–	–	–	–	–	–	–	–	–	–	–
CC(C)C[C@@H](OC(=O)[C@@H](NC(=O)[C@@H](O)C(C)C)C(C)C)C(=O)N[C@H](C)C(=O)O[C@H](C(=O)N[C@H](C(=O)O[C@H](CC(C)C)C(=O)N[C@H](C)C(=O)O[C@H](C(=O)N[C@H](C(=O)O[C@H](CC(C)C)C(=O)N[C@H](C)C(=O)O)C(C)C)C(C)C)C(C)C)C(C)C	12000 ng/mL	–	–	–	–	–	–	–	–	–	–	–	–
CC(C)C[C@@H]1OC(=O)[C@H](C(C)C)NC(=O)[C@@H](C(C)C)OC(=O)[C@@H](C)NC(=O)[C@H](CC(C)C)OC(=O)[C@H](C(C)C)NC(=O)[C@@H](C(C)C)OC(=O)[C@@H](C)NC(=O)[C@H](CC(C)C)OC(=O)[C@H](C(C)C)NC(=O)[C@@H](C(C)C)OC(=O)[C@@H](C)NC1=O (stereo in doubt; form 1)	5 ng/mL	5.3 min	6.3 min	4.4 min	5.7 min	3	1	1	7.3	5.3	7	6.8	Latency (Suncus murinus [3]): 5.9 min; Latency (Suncus murinus [5]): 15 min; No. of suncus vomited (Suncus murinus [8]): 0; No. of suncus vomited (Suncus murinus [9]): 5; No. of suncus vomited (Suncus murinus [11]): 0; No. of suncus vomited (Suncus murinus [12]): 2; No. of vomiting episodes (Suncus murinus [16]): 8.4; No. of vomiting episodes (Suncus murinus [18]): 4; No. of vomiting episodes (Suncus murinus [20]): 3
CC(C)C[C@@H]1OC(=O)[C@H](C(C)C)NC(=O)[C@@H](C(C)C)OC(=O)[C@@H](C)NC(=O)[C@H](CC(C)C)OC(=O)[C@H](C(C)C)NC(=O)[C@@H](C(C)C)OC(=O)[C@@H](C)NC(=O)[C@H](CC(C)C)OC(=O)[C@H](C(C)C)NC(=O)[C@@H](C(C)C)OC(=O)[C@@H](C)NC1=O (stereo in doubt; form 2)	3 ng/mL	6 min	8.3 min	8.2 min	7 min	5	0	0	10.3	6.3	7.6	5	Latency (Suncus murinus [21]): 6 min; No. of suncus vomited (Suncus murinus [22]): 3; No. of suncus vomited (Suncus murinus [23]): 5; No. of suncus vomited (Suncus murinus [24]): 1
